Experimental data taken from publication PMC10281575, “PfCRT mutations conferring piperaquine resistance in falciparum malaria shape the kinetics of quinoline drug binding and transport” (PLOS Pathogens, 2023).
Where “and” joins values, the source holds several entries; their conditions need not be identical. Identical values can stand only once.

Biological target: T1, PfCRT^Dd2_F145I (Plasmodium falciparum, UniProt Q8IBZ9, A220S/F145I/I356T/K76T/M74I/N326S/N75E/Q271E/R371I)
T1 construct: expressed in transfected cells; host or cells: Xenopus laevis oocytes injected with in vitro transcribed RNA (pSP64T)
T1 sequence (Q8IBZ9 1-424 M74I/N75E/K76T/F145I/A220S/Q271E/N326S/I356T/R371I): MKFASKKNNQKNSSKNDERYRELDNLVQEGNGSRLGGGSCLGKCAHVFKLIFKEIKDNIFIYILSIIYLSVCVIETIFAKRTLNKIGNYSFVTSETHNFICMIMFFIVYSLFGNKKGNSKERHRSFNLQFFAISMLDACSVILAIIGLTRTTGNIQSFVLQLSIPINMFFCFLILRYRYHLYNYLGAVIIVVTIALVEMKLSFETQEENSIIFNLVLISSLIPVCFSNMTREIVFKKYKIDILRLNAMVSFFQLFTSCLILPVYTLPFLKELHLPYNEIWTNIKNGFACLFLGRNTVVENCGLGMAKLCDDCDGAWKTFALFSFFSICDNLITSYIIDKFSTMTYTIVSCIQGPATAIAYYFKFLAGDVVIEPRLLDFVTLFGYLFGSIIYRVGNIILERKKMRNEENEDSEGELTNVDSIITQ
Experiment: Competition kinetics of drug transport (radiolabeled substrate plus cold inhibitor), PfCRT^Dd2_F145I-expressing oocytes
Format: cell-based
Procedure: To further characterize the kinetic relationship between CQ and PPQ, we performed a series of competition reactions. To this end, water-injected oocytes and PfCRT-expressing oocytes were incubated in medium containing one of seven concentrations of radio-labeled CQ and one of six concentrations of cold PPQ for 60 min before the amount of radio-labeled CQ uptake was determined. The rate of PfCRT-mediated CQ uptake was calculated for each condition by subtracting the corresponding value obtained for water-injected oocytes from those of PfCRT-expressing oocytes. The results were analyzed as a function of the CQ concentration (Fig 4A) and 16 different models of substrate competition were globally fit to the data by the least-squares method, using Python. The models were ranked, according to their Akaike information criterion difference (ΔAICC) and their Akaike weight (Fig 4B), with the most plausible model being the one with the lowest AICC (ΔAICC = 0) and the highest Akaike weight.
A complementary set of experiments was undertaken to investigate the kinetic mechanism by which PfCRT^Dd2_F145I accepts CQ and PPQ (Fig 6). […] These included a global fit of the substrate competition data to the 16 kinetic models (Fig 6), analysis of the secondary plots (Vmax,app and Vmax,app/KM,app as a function of the inhibitor concentration) (Fig 7A), a fractional velocity plot analysis (Fig 7B) and a comparison of the experimental data with the modelled data using the noncompetitive inhibition equation (Fig 7C to 7F). […] The fractional velocity plot illustrated the partial character of the noncompetitive inhibition mechanism by yielding a partiality factor β^CQ = 0.31 ± 0.04, by which PPQ reduces the transport velocity of CQ (Fig 7B). […] A 3D model of the kinetics between PfCRT^Dd2_F145I, CQ and PPQ, and analyses of the residuals as a function of substrate and inhibitor concentrations confirmed that the model was also an appropriate explanation for the mutant transporter (Fig 7C to 7F).
Drug transport assays were performed as previously described. Briefly, measurements of radiolabeled drug uptake were made over 1 h, unless otherwise specified. […] Where specified, one or more unlabeled drugs were also present at the indicated concentrations. The direction of drug transport in the assays is from the extracellular medium (pH 6) into the oocyte cytosol (pH 7.2), which corresponds to the efflux of CQ or PPQ from the acidic digestive vacuole (pH 5.2) into the parasite cytosol (pH 7.2). The uptake assays were terminated by removing the oocytes from the reaction medium and washing them three times with 2 mL of ice-cold ND96 buffer. Each oocyte was transferred to a separate scintillation vial and lysed by the addition of 200 μL of a 5% SDS solution. The radioactivity in the sample was measured using a liquid scintillation analyser Tri-Carb 4910 TR (PerkinElmer). Water-injected oocytes were analyzed in parallel as a negative control. The buffer from each condition was measured in duplicate in parallel to each experiment to transform counts per minute into pmol of drug. Drug uptake attributable to PfCRT was determined by subtracting the background uptake from water-injected oocytes from that of PfCRT-expressing oocytes. In all cases, at least three independent experiments were performed on oocytes from different frogs, and for each condition in an experiment, measurements were made from 10 oocytes per treatment.
The following equations were adopted from Segel (1993), and the reader is referred to that text for the assumptions made in the author’s approach in the derivation of each equation [31]. The concentration of substrate is denoted as [S1] and the concentration of the inhibiting substrate is denoted as [S2]. KS1 and KS2 are the dissociation constants for the respective substrate-protein complexes.
Analyses of the kinetic data were performed using SigmaPlot version 13.0 and Python. […]

With CCN(CC)CCCC(C)Nc1ccnc2cc(Cl)ccc12 (stereo not shown) [CQ, chloroquine] the “PfCRTDd2_F145I-mediated CQ transport” value (10 µM CQ, 50 µM PPQ) was 0.59 pmol oocyte-1 h-1 and 0.39 pmol oocyte-1 h-1, the “PfCRTDd2_F145I-mediated CQ transport” value (10 µM CQ, 125 µM PPQ) was 0.68 pmol oocyte-1 h-1 and 0.58 pmol oocyte-1 h-1 and 0.47 pmol oocyte-1 h-1 and the “PfCRTDd2_F145I-mediated CQ transport” value (10 µM CQ, 200 µM PPQ) was 0.27 pmol oocyte-1 h-1 and 0.32 pmol oocyte-1 h-1 and 0.33 pmol oocyte-1 h-1. The “PfCRTDd2_F145I-mediated CQ transport” value (10 µM CQ, 350 µM PPQ) was 0.43 pmol oocyte-1 h-1 and 0.31 pmol oocyte-1 h-1 and 0.46 pmol oocyte-1 h-1, the “PfCRTDd2_F145I-mediated CQ transport” value (50 µM CQ, 0 µM PPQ) was 3.80 pmol oocyte-1 h-1 and 4.28 pmol oocyte-1 h-1 and 2.84 pmol oocyte-1 h-1 and the “PfCRTDd2_F145I-mediated CQ transport” value (50 µM CQ, 50 µM PPQ) was 3.24 pmol oocyte-1 h-1 and 2.4 pmol oocyte-1 h-1 and 3.22 pmol oocyte-1 h-1. For the same molecule, the “PfCRTDd2_F145I-mediated CQ transport” value (50 µM CQ, 125 µM PPQ) was 3.47 pmol oocyte-1 h-1 and 2.37 pmol oocyte-1 h-1 and 2.11 pmol oocyte-1 h-1, the “PfCRTDd2_F145I-mediated CQ transport” value (50 µM CQ, 200 µM PPQ) was 2.85 pmol oocyte-1 h-1 and 2.54 pmol oocyte-1 h-1 and 2.07 pmol oocyte-1 h-1 and the “PfCRTDd2_F145I-mediated CQ transport” value (50 µM CQ, 350 µM PPQ) was 1.72 pmol oocyte-1 h-1 and 1.78 pmol oocyte-1 h-1 and 2.56 pmol oocyte-1 h-1. For the same molecule, the “PfCRTDd2_F145I-mediated CQ transport” value (50 µM CQ, 500 µM PPQ) was 1.90 pmol oocyte-1 h-1 and 2.40 pmol oocyte-1 h-1, the “PfCRTDd2_F145I-mediated CQ transport” value (100 µM CQ, 0 µM PPQ) was 5.25 pmol oocyte-1 h-1 and 7.33 pmol oocyte-1 h-1 and 8.14 pmol oocyte-1 h-1 and the “PfCRTDd2_F145I-mediated CQ transport” value (100 µM CQ, 125 µM PPQ) was 4.86 pmol oocyte-1 h-1 and 5.68 pmol oocyte-1 h-1 and 5.61 pmol oocyte-1 h-1. The “PfCRTDd2_F145I-mediated CQ transport” value (100 µM CQ, 200 µM PPQ) was 4.12 pmol oocyte-1 h-1 and 4.69 pmol oocyte-1 h-1 and 4.23 pmol oocyte-1 h-1, the “PfCRTDd2_F145I-mediated CQ transport” value (100 µM CQ, 350 µM PPQ) was 3.37 pmol oocyte-1 h-1 and 4.27 pmol oocyte-1 h-1 and 5.15 pmol oocyte-1 h-1 and the “PfCRTDd2_F145I-mediated CQ transport” value (200 µM CQ, 0 µM PPQ) was 12.53 pmol oocyte-1 h-1 and 12.79 pmol oocyte-1 h-1. For the same molecule, the “PfCRTDd2_F145I-mediated CQ transport” value (200 µM CQ, 50 µM PPQ) was 14.25 pmol oocyte-1 h-1 and 10 pmol oocyte-1 h-1 and 10.59 pmol oocyte-1 h-1, the “PfCRTDd2_F145I-mediated CQ transport” value (200 µM CQ, 125 µM PPQ) was 10.11 pmol oocyte-1 h-1 and 9.30 pmol oocyte-1 h-1 and 9.95 pmol oocyte-1 h-1 and the “PfCRTDd2_F145I-mediated CQ transport” value (200 µM CQ, 200 µM PPQ) was 7.48 pmol oocyte-1 h-1 and 7.15 pmol oocyte-1 h-1 and 10.15 pmol oocyte-1 h-1. The “PfCRTDd2_F145I-mediated CQ transport” value (200 µM CQ, 350 µM PPQ) was 6.25 pmol oocyte-1 h-1 and 7.4 pmol oocyte-1 h-1 and 8.42 pmol oocyte-1 h-1, the “PfCRTDd2_F145I-mediated CQ transport” value (200 µM CQ, 500 µM PPQ) was 7.88 pmol oocyte-1 h-1 and 6.35 pmol oocyte-1 h-1 and the “PfCRTDd2_F145I-mediated CQ transport” value (300 µM CQ, 0 µM PPQ) was 13.73 pmol oocyte-1 h-1 and 19.15 pmol oocyte-1 h-1. For the same molecule, the “PfCRTDd2_F145I-mediated CQ transport” value (300 µM CQ, 50 µM PPQ) was 13.84 pmol oocyte-1 h-1 and 14.19 pmol oocyte-1 h-1 and 16.04 pmol oocyte-1 h-1, the “PfCRTDd2_F145I-mediated CQ transport” value (300 µM CQ, 125 µM PPQ) was 11.05 pmol oocyte-1 h-1 and 9.73 pmol oocyte-1 h-1 and 15.82 pmol oocyte-1 h-1 and the “PfCRTDd2_F145I-mediated CQ transport” value (300 µM CQ, 200 µM PPQ) was 10.02 pmol oocyte-1 h-1 and 12.63 pmol oocyte-1 h-1 and 9.83 pmol oocyte-1 h-1. For the same molecule, the “PfCRTDd2_F145I-mediated CQ transport” value (300 µM CQ, 350 µM PPQ) was 9.31 pmol oocyte-1 h-1 and 9.21 pmol oocyte-1 h-1 and 10.66 pmol oocyte-1 h-1, the “PfCRTDd2_F145I-mediated CQ transport” value (300 µM CQ, 500 µM PPQ) was 9.09 pmol oocyte-1 h-1 and 11.47 pmol oocyte-1 h-1 and the “PfCRTDd2_F145I-mediated CQ transport” value (400 µM CQ, 0 µM PPQ) was 14.23 pmol oocyte-1 h-1 and 18.19 pmol oocyte-1 h-1. The “PfCRTDd2_F145I-mediated CQ transport” value (400 µM CQ, 50 µM PPQ) was 15.01 pmol oocyte-1 h-1 and 14.7 pmol oocyte-1 h-1 and 18.28 pmol oocyte-1 h-1, the “PfCRTDd2_F145I-mediated CQ transport” value (400 µM CQ, 125 µM PPQ) was 14.33 pmol oocyte-1 h-1 and 12.62 pmol oocyte-1 h-1 and 13.88 pmol oocyte-1 h-1 and the “PfCRTDd2_F145I-mediated CQ transport” value (400 µM CQ, 200 µM PPQ) was 9.98 pmol oocyte-1 h-1 and 13.36 pmol oocyte-1 h-1 and 12.15 pmol oocyte-1 h-1. The “PfCRTDd2_F145I-mediated CQ transport” value (400 µM CQ, 350 µM PPQ) was 7.72 pmol oocyte-1 h-1 and 13.35 pmol oocyte-1 h-1 and 10.83 pmol oocyte-1 h-1, the “PfCRTDd2_F145I-mediated CQ transport” value (500 µM CQ, 0 µM PPQ) was 19.16 pmol oocyte-1 h-1 and 17.86 pmol oocyte-1 h-1 and the “PfCRTDd2_F145I-mediated CQ transport” value (500 µM CQ, 50 µM PPQ) was 16.43 pmol oocyte-1 h-1 and 15.64 pmol oocyte-1 h-1 and 17.36 pmol oocyte-1 h-1. The “PfCRTDd2_F145I-mediated CQ transport” value (500 µM CQ, 125 µM PPQ) was 14.97 pmol oocyte-1 h-1 and 16.69 pmol oocyte-1 h-1 and 12.9 pmol oocyte-1 h-1.
